Measured values published in PubChem BioAssay AID248 (DTP/NCI, 2004).
Several values for one entry are separate records, joined by “and”; a condition that tells them apart may be missing. Equal values may be shown once. Toxic doses and inconclusive results are not listed. No stated cut-off is given here; in the data, active means T/C of 150% or more; inactive means T/C below 125%.

Test system: L1210 leukemia ip in BDF1 mice, survival T/C
Test: NCI In Vivo Anticancer Drug Screen. Data for tumor model L1210 Leukemia (intraperitoneal) in B6D2F1 (BDF1) mice
Settings: endpoint: mean survival time, higher = longer survival
Summary of the method: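 Tumor cells were implanted, animals were treated, and survival was followed. The result divides the treated measurement by the vehicle-control measurement.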

[1] = dose: 100.0 mg/kg/injection, schedule: Q01DX001 (ip), vehicle: saline
[2] = dose: 200.0 mg/kg/injection, schedule: Q01DX001 (ip), vehicle: saline
[3] = dose: 400.0 mg/kg/injection, schedule: Q01DX001 (ip), vehicle: saline
[4] = dose: 100.0 mg/kg/injection, schedule: Q01DX009 (ip), vehicle: saline with Tween-80
[5] = dose: 200.0 mg/kg/injection, schedule: Q01DX009 (ip), vehicle: saline with Tween-80
[6] = dose: 100.0 mg/kg/injection, schedule: Q04DX002 (ip), vehicle: Klucel (hydroxypropylcellulose) (HPC)
[7] = dose: 200.0 mg/kg/injection, schedule: Q04DX002 (ip), vehicle: Klucel (hydroxypropylcellulose) (HPC)
[8] = dose: 400.0 mg/kg/injection, schedule: Q04DX002 (ip), vehicle: Klucel (hydroxypropylcellulose) (HPC)
[9] = dose: 100.0 mg/kg/injection, schedule: Q04DX003 (ip), vehicle: saline
[10] = dose: 100.0 mg/kg/injection, schedule: Q01DX009 (ip), vehicle: Klucel (hydroxypropylcellulose) (HPC)
[11] = dose: 200.0 mg/kg/injection, schedule: Q01DX009 (ip), vehicle: Klucel (hydroxypropylcellulose) (HPC)
[12] = dose: 400.0 mg/kg/injection, schedule: Q01DX009 (ip), vehicle: Klucel (hydroxypropylcellulose) (HPC)
[13] = dose: 100.0 mg/kg/injection, schedule: Q04DX002 (ip), vehicle: saline with Tween-80
[14] = dose: 100.0 mg/kg/injection, schedule: Q04DX003 (ip), vehicle: Klucel (hydroxypropylcellulose) (HPC)
[15] = dose: 200.0 mg/kg/injection, schedule: Q04DX003 (ip), vehicle: Klucel (hydroxypropylcellulose) (HPC)
[16] = dose: 400.0 mg/kg/injection, schedule: Q04DX003 (ip), vehicle: Klucel (hydroxypropylcellulose) (HPC)

Measured: T/C

COC(=O)c1cccc(OC)c1-c1c(OC)cccc1C(=O)OC
inactive: dose: 100.0 mg/kg/injection, schedule: Q01DX001 (ip), vehicle: Klucel (hydroxypropylcellulose) (HPC) 105 % of control | dose: 200.0 mg/kg/injection, schedule: Q01DX001 (ip), vehicle: Klucel (hydroxypropylcellulose) (HPC) 103 % of control | dose: 400.0 mg/kg/injection, schedule: Q01DX001 (ip), vehicle: Klucel (hydroxypropylcellulose) (HPC) 102 % of control

Nc1ccc2oc3cccc(N)c3c(=O)c2c1
inactive: [1] 94 % of control | [2] 96 % of control | [3] 96 % of control

O=C1c2ccccc2C(=O)N1CNc1ccc(Oc2ccc(Cl)cc2)cc1
inactive: [4] 93 % of control | [5] 93 % of control

CCCCCCCCCCCCCCCCCCNC(=O)NC(C)(C)C
inactive: [6] 111 % of control | [7] 100 % of control | [8] 111 % of control

CCC[N+](C)(C)CC[N+](C)(C)CCC
inactive: [1] 99 % of control | [2] 103 % of control | [3] 101 % of control

CNCC(C)CNC
inactive: dose: 25.0 mg/kg/injection, schedule: Q04DX003 (ip), vehicle: saline 94 % of control | dose: 50.0 mg/kg/injection, schedule: Q01DX009 (ip), vehicle: saline 103 % of control | dose: 50.0 mg/kg/injection, schedule: Q04DX003 (ip), vehicle: saline 93 % of control | dose: 100.0 mg/kg/injection, schedule: Q01DX009 (ip), vehicle: saline 103 % of control | [9] 95 % of control and 97 % of control

Cc1cc([N+](=O)[O-])c(N/N=C/c2ccccc2Cl)c([N+](=O)[O-])c1
inactive: [10] 101 % of control | [11] 95 % of control | [12] 95 % of control

CC(C)(C)N1CC(C(=O)O)C1
inactive: [1] 97 % of control | [2] 103 % of control | [3] 97 % of control

CCN=C(CCl)NS(=O)(=O)c1ccc(C)cc1
inactive: dose: 25.0 mg/kg/injection, schedule: Q04DX002 (ip), vehicle: saline with Tween-80 113 % of control | dose: 50.0 mg/kg/injection, schedule: Q04DX002 (ip), vehicle: saline with Tween-80 109 % of control | [13] 109 % of control

C[CH2][Pb]([CH2]C)([CH2]C)[n]1ccnc1
inactive: [6] 95 % of control | [7] 95 % of control | [8] 100 % of control

COc1cc(N2C(N)=NC(N)=NC2(C)C)cc(OC)c1OC
inactive: dose: 6.25 mg/kg/injection, schedule: Q01DX009 (ip), vehicle: saline 98 % of control | dose: 12.5 mg/kg/injection, schedule: Q01DX009 (ip), vehicle: saline 105 % of control | dose: 25.0 mg/kg/injection, schedule: Q01DX009 (ip), vehicle: saline 107 % of control

COc1ccc(NC(=S)Nc2ccccc2)c(Cl)c1
inactive: [6] 105 % of control | [7] 97 % of control | [8] 108 % of control

Cc1ccc(S(=O)(=O)/C=C(/I)c2ccccc2)cc1
inactive: [4] 104 % of control | dose: 100.0 mg/kg/injection, schedule: Q04DX003 (ip), vehicle: saline with Tween-80 95 % of control | [5] 100 % of control | dose: 200.0 mg/kg/injection, schedule: Q04DX003 (ip), vehicle: saline with Tween-80 92 % of control | dose: 400.0 mg/kg/injection, schedule: Q01DX009 (ip), vehicle: saline with Tween-80 94 % of control | dose: 400.0 mg/kg/injection, schedule: Q04DX003 (ip), vehicle: saline with Tween-80 104 % of control

Cc1ccc(N)c(F)c1
inactive: dose: 100.0 mg/kg/injection, schedule: Q04DX002 (sc), vehicle: olive oil, sesame oil, peanut oil 93 % of control | dose: 200.0 mg/kg/injection, schedule: Q04DX002 (sc), vehicle: olive oil, sesame oil, peanut oil 98 % of control | dose: 400.0 mg/kg/injection, schedule: Q04DX002 (sc), vehicle: olive oil, sesame oil, peanut oil 104 % of control

CCc1ccc(NC(=O)Nc2cccc3ccccc23)cc1
inactive: [10] 87 % of control | [14] 98 % of control | [11] 90 % of control | [15] 90 % of control | [12] 92 % of control | [16] 96 % of control

COc1ccc(/C=C/C(=O)c2ccc(OC)c(OCc3ccccc3)c2)cc1OC
inactive: dose: 100.0 mg/kg/injection, schedule: Q01DX009 (ip), vehicle: water 98 % of control | dose: 100.0 mg/kg/injection, schedule: Q04DX003 (ip), vehicle: water 98 % of control | dose: 200.0 mg/kg/injection, schedule: Q01DX009 (ip), vehicle: water 93 % of control | dose: 200.0 mg/kg/injection, schedule: Q04DX003 (ip), vehicle: water 94 % of control | dose: 400.0 mg/kg/injection, schedule: Q01DX009 (ip), vehicle: water 97 % of control | dose: 400.0 mg/kg/injection, schedule: Q04DX003 (ip), vehicle: water 98 % of control

CCCCCCCCCCCCCCC(S(=O)(=O)CC)S(=O)(=O)CC
inactive: [14] 95 % of control | [15] 100 % of control | [16] 90 % of control

COC1OC(COS(C)(=O)=O)C(O)C(OS(C)(=O)=O)C1OS(C)(=O)=O (stereo not drawn)
inactive: dose: 50.0 mg/kg/injection, schedule: Q04DX002 (ip), vehicle: Klucel (hydroxypropylcellulose) (HPC) 93 % of control | [6] 93 % of control | [7] 101 % of control

COc1nc(=S)nc(OC)[nH]1
inactive: dose: 100.0 mg/kg/injection, schedule: Q01DX Z (ip), vehicle: methylcellulose (MC) 95 % of control

CCCCNC(C)(C)C(=O)c1ccco1
inactive: dose: 50.0 mg/kg/injection, schedule: Q01DX009 (ip), vehicle: saline with Tween-80 100 % of control | [4] 97 % of control | [5] 111 % of control

CCCCOP(=O)(OCCCC)OC(C)C(C)=O (stereo not drawn)
inactive: [1] 95 % of control | [9] 102 % of control | [2] 104 % of control | dose: 200.0 mg/kg/injection, schedule: Q04DX003 (ip), vehicle: saline 98 % of control | [3] 101 % of control | dose: 400.0 mg/kg/injection, schedule: Q04DX003 (ip), vehicle: saline 90 % of control

CC(C)C(N)(CCN1CCOCC1)c1cccc2ccccc12 (stereo not drawn)
inactive: [4] 99 % of control | [13] 88 % of control | [5] 101 % of control | dose: 200.0 mg/kg/injection, schedule: Q04DX002 (ip), vehicle: saline with Tween-80 92 % of control
